Measurements published in patent publication US6469149B1 (priority 1997, dated 2002).

Experiments:
[1] = target: T1, L-galactono-γ-lactone dehydrogenase (Brassica oleracea, UniProt O47881); experiment: GLDase activity in the presence of lycorine (reduction of cytochrome c, absorption at 550 nm); type: biochemical, cauliflower (Brassica olecera var. botrytis); design: Activity of the enzyme expressed in increase in absorption at 550 nm/second: scale not given here
T1 construct: The resulting mature protein of 509 amino acids has a calculated molecular mass of 57,837 Da; from tissue; host or cells: cauliflower florets (mitochondrial pellet, acetone-precipitated extract; DEAE, Phenyl Sepharose and Sephacryl gel filtration fractions)
T1 sequence (O47881 92-600): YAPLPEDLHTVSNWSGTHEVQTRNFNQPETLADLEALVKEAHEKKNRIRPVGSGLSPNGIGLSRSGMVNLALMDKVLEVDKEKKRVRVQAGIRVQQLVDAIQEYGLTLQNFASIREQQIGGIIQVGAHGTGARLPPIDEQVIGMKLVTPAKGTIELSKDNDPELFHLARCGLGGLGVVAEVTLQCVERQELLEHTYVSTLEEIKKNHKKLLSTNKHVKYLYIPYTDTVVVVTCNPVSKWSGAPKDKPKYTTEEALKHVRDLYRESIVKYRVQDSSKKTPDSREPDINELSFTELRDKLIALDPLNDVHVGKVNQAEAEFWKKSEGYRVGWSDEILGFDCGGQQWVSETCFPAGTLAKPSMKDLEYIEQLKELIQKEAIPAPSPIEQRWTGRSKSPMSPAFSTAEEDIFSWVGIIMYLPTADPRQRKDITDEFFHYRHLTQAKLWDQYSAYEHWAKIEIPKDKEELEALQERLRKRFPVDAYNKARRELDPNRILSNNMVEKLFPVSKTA
Protocol: The GLDase activity of the fractions was is determined spectrophotometrically by monitoring the L-galactono-γ-lactone dehydrogenase-dependent reduction of cytochrome c at 22° C. A typical reaction mixture contained the enzyme extract, 1.5 mg/ml cytochrome c and 4.2 mM L-galactono-γ-lactone in 0.05 M Tris-HCl buffer (pH 8.4). Reduction of cytochrome c was monitored by determining the absorption increase at 550 nm. Under these conditions the speed of the reaction was linear in respect of time for an initial period of 15 minutes. One unit of enzyme activity was defined as the quantity of enzyme reducing 2 μmol of cytochrome C per minute.
Lycorine was isolated from the plant Crinum asiaticum and the identity of the isolated product was verified by NMR, electron spray mass spectrometry HPLC analysis and capillary electrophoresis. Fractions of L-galactono-γ-lactone dehydrogenase activity isolated from the gel filtration column were tested for their activity in two different buffers in the presence of 5 or 50 μM lycorine (see table 3).

[2] = target: T2, L-galactono-γ-lactone dehydrogenase (Arabidopsis thaliana, UniProt Q9SU56); settings: literature (De Tullio et al. 1994; Arrigoni et al. 1996); cited from earlier work
T2 sequence (Q9SU56 102-610): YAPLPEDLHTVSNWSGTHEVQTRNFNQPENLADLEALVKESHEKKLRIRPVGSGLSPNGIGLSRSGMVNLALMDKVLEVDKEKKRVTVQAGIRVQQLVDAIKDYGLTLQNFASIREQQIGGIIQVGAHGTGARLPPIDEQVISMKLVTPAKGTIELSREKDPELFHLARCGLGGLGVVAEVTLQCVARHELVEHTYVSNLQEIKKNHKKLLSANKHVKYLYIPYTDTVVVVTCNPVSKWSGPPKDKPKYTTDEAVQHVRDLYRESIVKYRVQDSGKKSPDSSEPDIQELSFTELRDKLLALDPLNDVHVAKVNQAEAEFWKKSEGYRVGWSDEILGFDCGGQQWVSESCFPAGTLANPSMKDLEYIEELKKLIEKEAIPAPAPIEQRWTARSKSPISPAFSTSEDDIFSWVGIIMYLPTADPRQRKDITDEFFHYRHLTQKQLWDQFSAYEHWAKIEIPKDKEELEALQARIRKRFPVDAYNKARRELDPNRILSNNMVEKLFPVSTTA

ascorbic acid synthesis = settings: literature statement; cited from earlier work

With `O[C@H]1[C@H]2c3cc4c(cc3CN3CCC(=C[C@@H]1O)[C@H]23)OCO4` [lycorine] the “Activity of the enzyme expressed in increase in absorption at 550 nm/second” value ([1]; 5 μM lycorine, 75 mM PO4 pH 7.0, 0 μM control 0.980) was 0.857 absorption at 550 nm/second, the “Activity of the enzyme expressed in increase in absorption at 550 nm/second” value ([1]; 5 μM lycorine, 75 mM PO4 pH 7.5, 0 μM control 1.385) was 1.372 absorption at 550 nm/second and the “Activity of the enzyme expressed in increase in absorption at 550 nm/second” value ([1]; 5 μM lycorine, 75 mM PO4 pH 8, 0 μM control 1.882) was 1.690 absorption at 550 nm/second. The “Activity of the enzyme expressed in increase in absorption at 550 nm/second” value ([1]; 5 μM lycorine, 75 mM Tris pH 7.4, 0 μM control 3.627) was 3.927 absorption at 550 nm/second, the “Activity of the enzyme expressed in increase in absorption at 550 nm/second” value ([1]; 5 μM lycorine, 75 mM Tris pH 8.2, 0 μM control 6.365) was 6.400 absorption at 550 nm/second and the “Activity of the enzyme expressed in increase in absorption at 550 nm/second” value ([1]; 5 μM lycorine, 75 mM Tris pH 8.9, 0 μM control 5.438) was 5.199 absorption at 550 nm/second. The “Activity of the enzyme expressed in increase in absorption at 550 nm/second” value ([1]; 50 μM lycorine, 75 mM PO4 pH 7.0, 0 μM control 0.980) was 0.842 absorption at 550 nm/second, the “Activity of the enzyme expressed in increase in absorption at 550 nm/second” value ([1]; 50 μM lycorine, 75 mM PO4 pH 7.5, 0 μM control 1.385) was 1.254 absorption at 550 nm/second and the “Activity of the enzyme expressed in increase in absorption at 550 nm/second” value ([1]; 50 μM lycorine, 75 mM PO4 pH 8, 0 μM control 1.882) was 1.768 absorption at 550 nm/second. For the same molecule, the “Activity of the enzyme expressed in increase in absorption at 550 nm/second” value ([1]; 50 μM lycorine, 75 mM Tris pH 7.4, 0 μM control 3.627) was 3.743 absorption at 550 nm/second, the “Activity of the enzyme expressed in increase in absorption at 550 nm/second” value ([1]; 50 μM lycorine, 75 mM Tris pH 8.2, 0 μM control 6.365) was 6.127 absorption at 550 nm/second and the “Activity of the enzyme expressed in increase in absorption at 550 nm/second” value ([1]; 50 μM lycorine, 75 mM Tris pH 8.9, 0 μM control 5.438) was 5.507 absorption at 550 nm/second. For the same molecule, the “Effect on GLDase activity” value ([1]; 100 μM lycorine, additional tests) was “did not show a decrease in activity”, the “Effect on GLDase activity after pre-incubation” value ([1]; pre-incubation of one hour of the enzyme with lycorine) was “did not influence the enzyme activity” and the “Sensitivity of the isolated GLDase to lycorine” value ([1]; up to a concentration of 50 μM) was “lycorine-insensitive”. The “Inhibition of L-galactono-γ-lactone dehydrogenase” value [2] was “inhibited” and the “Concentration at which ascorbic acid synthesis is inhibited” value (ascorbic acid synthesis) was no less than 1 µM.
